Laboratory results published in ChEMBL document CHEMBL1201862, “PubChem BioAssay data set” (2004).
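Following 48 hours of exposure in 96-well plates, responses at five concentrations were used to interpolate endpoints linearly. Abbreviation: GI50, concentration required for 50% inhibition of growth.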 The source made the active and inactive calls. Cut-off read from the data, not from the text of the source: active = GI50 up to about 1.1 µM and inactive = higher.

Tests used:
Assay in all cases: NCI anticancer screen, dose series, 48 h
[1] = test system: A498
[2] = test system: CAKI-1
[3] = test system: HCC 2998
[4] = test system: HCT-15
[5] = test system: HL-60
[6] = test system: HOP-62
[7] = test system: IGROV-1
[8] = test system: K562
[9] = test system: MDA-MB-435
[10] = test system: NCI-H460
[11] = test system: OVCAR-3
[12] = test system: OVCAR-5
[13] = test system: OVCAR-8
[14] = test system: RXF 393
[15] = test system: SF-268
[16] = test system: SK-MEL-2
[17] = test system: SN12C
[18] = test system: SR
[19] = test system: UO-31

**Q.** `O=c1c2ccccc2n2c(S)nnc2n1-c1ccccc1` was tested. Which GI50 [1] did it give?
**A.** > 100 µM (inactive)

**Q.** And the GI50 [2]?
**A.** > 100 µM (inactive)

**Q.** And the GI50 [3]?
**A.** > 100 µM (inactive)

**Q.** What about the GI50 [4] of the same compound?
**A.** > 100 µM

**Q.** And the GI50 [5]?
**A.** > 100 µM (inactive)

**Q.** What about the GI50 [6] of the same compound?
**A.** > 100 µM (inactive)

**Q.** What about the GI50 [7] of the same compound?
**A.** > 100 µM (inactive)

**Q.** And the GI50 [8]?
**A.** > 100 µM (inactive)

**Q.** And the GI50 [9]?
**A.** > 100 µM (inactive)

**Q.** What about the GI50 [10] of the same compound?
**A.** > 100 µM (inactive)

**Q.** And the GI50 [11]?
**A.** > 100 µM (inactive)

**Q.** What about the GI50 [12] of the same compound?
**A.** > 100 µM (inactive)

**Q.** What about the GI50 [13] of the same compound?
**A.** > 100 µM (inactive)

**Q.** And the GI50 [14]?
**A.** > 100 µM (inactive)

**Q.** And the GI50 [15]?
**A.** > 100 µM (inactive)

**Q.** And the GI50 [16]?
**A.** > 100 µM (inactive)

**Q.** And the GI50 [17]?
**A.** > 100 µM (inactive)

**Q.** What about the GI50 [18] of the same compound?
**A.** > 100 µM (inactive)

**Q.** What about the GI50 [19] of the same compound?
**A.** > 100 µM (inactive)

**Q.** `O=C1/C(=C/c2ccc([N+](=O)[O-])cc2)C(=O)N(c2ccccc2)C1c1ccccc1` (stereo unspecified) was tested. Which GI50 [1] did it give?
**A.** > 10 µM (inactive)

**Q.** What about the GI50 [2] of the same compound?
**A.** > 10 µM (inactive)

**Q.** And the GI50 [3]?
**A.** > 10 µM (inactive)

**Q.** And the GI50 [4]?
**A.** > 10 µM

**Q.** What about the GI50 [5] of the same compound?
**A.** > 10 µM (inactive)

**Q.** What about the GI50 [6] of the same compound?
**A.** > 10 µM (inactive)

**Q.** What about the GI50 [7] of the same compound?
**A.** > 10 µM (inactive)

**Q.** What about the GI50 [9] of the same compound?
**A.** > 10 µM (inactive)

**Q.** What about the GI50 [10] of the same compound?
**A.** > 10 µM (inactive)

**Q.** And the GI50 [11]?
**A.** > 10 µM (inactive)

**Q.** And the GI50 [12]?
**A.** > 10 µM (inactive)

**Q.** What about the GI50 [13] of the same compound?
**A.** > 10 µM (inactive)

**Q.** And the GI50 [14]?
**A.** > 10 µM (inactive)

**Q.** What about the GI50 [15] of the same compound?
**A.** > 10 µM (inactive)

**Q.** What about the GI50 [16] of the same compound?
**A.** > 10 µM (inactive)

**Q.** And the GI50 [17]?
**A.** > 10 µM (inactive)

**Q.** And the GI50 [18]?
**A.** > 10 µM (inactive)

**Q.** And the GI50 [19]?
**A.** > 10 µM (inactive)

**Q.** Which results are given for `O/N=C(/C(Cl)=C(Cl)Cl)C(Cl)Cl`?
**A.** GI50 [1]: > 100 µM (inactive); GI50 [2]: 33.6 µM (inactive); GI50 [3]: 31.4 µM (inactive); GI50 [4]: 17.2 µM; GI50 [5]: 8.28 µM (inactive); GI50 [6]: 23.3 µM (inactive); GI50 [7]: 20.4 µM (inactive); GI50 [8]: 13.3 µM (inactive); GI50 [9]: 18.2 µM (inactive); GI50 [10]: 37.2 µM (inactive); GI50 [11]: 19.6 µM (inactive); GI50 [12]: 25.9 µM (inactive); GI50 [13]: 23.9 µM (inactive); GI50 [14]: 16.3 µM (inactive); GI50 [15]: 17 µM (inactive); GI50 [17]: 18.1 µM (inactive); GI50 [18]: 10.8 µM (inactive); GI50 [19]: 20.9 µM (inactive)

**Q.** Which results are given for `COC(=O)c1ccccc1NC(=S)NN(C)C`?
**A.** GI50 [1]: > 100 µM (inactive); GI50 [2]: > 100 µM (inactive); GI50 [3]: > 100 µM (inactive); GI50 [4]: > 100 µM; GI50 [5]: > 100 µM (inactive); GI50 [7]: > 100 µM (inactive); GI50 [8]: > 100 µM (inactive); GI50 [9]: > 100 µM (inactive); GI50 [11]: > 100 µM (inactive); GI50 [12]: > 100 µM (inactive); GI50 [13]: > 100 µM (inactive); GI50 [14]: > 100 µM (inactive); GI50 [16]: > 100 µM (inactive); GI50 [18]: > 100 µM (inactive); GI50 [19]: > 100 µM (inactive)

**Q.** Which results are given for `O=C(O)Cn1ccc(=O)c2ccc([N+](=O)[O-])cc21`?
**A.** GI50 [1]: > 100 µM (inactive); GI50 [2]: > 100 µM (inactive); GI50 [3]: > 100 µM (inactive); GI50 [4]: > 100 µM; GI50 [5]: > 100 µM (inactive); GI50 [6]: > 100 µM (inactive); GI50 [7]: > 100 µM (inactive); GI50 [8]: > 100 µM (inactive); GI50 [9]: > 100 µM (inactive); GI50 [10]: > 100 µM (inactive); GI50 [11]: > 100 µM (inactive); GI50 [12]: > 100 µM (inactive); GI50 [13]: > 100 µM (inactive); GI50 [15]: > 100 µM (inactive); GI50 [16]: > 100 µM (inactive); GI50 [17]: > 100 µM (inactive); GI50 [18]: > 100 µM (inactive); GI50 [19]: > 100 µM (inactive)

**Q.** How did the GI50 [1] turn out when `CC1(C)[C@@H]2C[C@H]1C(Cc1ccccc1C[C@H]1c3cc(-c4ccccn4)ncc3[C@H]3C[C@@H]1C3(C)C)c1cc(-c3ccccn3)ncc12` (stereo partly specified) was run?
**A.** 0.673 µM (active)

**Q.** What about the GI50 [2] of the same compound?
**A.** 0.568 µM (active)

**Q.** And the GI50 [3]?
**A.** 0.982 µM (active)

**Q.** What about the GI50 [4] of the same compound?
**A.** 0.41 µM

**Q.** What about the GI50 [5] of the same compound?
**A.** 0.232 µM (active)

**Q.** What about the GI50 [6] of the same compound?
**A.** 0.147 µM (active)

**Q.** And the GI50 [7]?
**A.** 0.274 µM (active)

**Q.** And the GI50 [8]?
**A.** 0.356 µM (active)

**Q.** And the GI50 [9]?
**A.** 0.416 µM (active)

**Q.** What about the GI50 [10] of the same compound?
**A.** 0.337 µM (active)

**Q.** What about the GI50 [11] of the same compound?
**A.** 0.387 µM (active)

**Q.** And the GI50 [12]?
**A.** 0.791 µM (active)

**Q.** What about the GI50 [13] of the same compound?
**A.** 0.378 µM (active)

**Q.** And the GI50 [14]?
**A.** 0.714 µM (active)

**Q.** And the GI50 [15]?
**A.** 0.292 µM (active)

**Q.** What about the GI50 [17] of the same compound?
**A.** 0.479 µM (active)

**Q.** And the GI50 [18]?
**A.** 0.153 µM (active)

**Q.** And the GI50 [19]?
**A.** 0.312 µM (active)
